Results taken from patent US8952024B2, “Herbicidal pyrimidone derivatives” (E I du Pont de Nemours and Company, priority 2009, dated 2015).

How the values were obtained:
Format in all cases: in vivo
[1] = system: canarygrass (Phalaris minor); experiment: Test B postemergence plant response; details: for Canarygrass plant response rating (0 to 100 scale): 62 g ai/ha, 0 is no effect, 13 to 15 days
Summary of the method: (§1)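 Visual ratings from 0 (no effect) to 100 (complete control), made against controls 13–15 days after treatment, kept in a greenhouse. Compounds were applied postemergence to potted plants at the 1- to 4-leaf stage (2–18 cm).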

[2] = system: winter barley (Hordeum vulgare); experiment: Test B postemergence plant response; details: for Barley plant response rating (0 to 100 scale): 62 g ai/ha, 0 is no effect, 13 to 15 days
Summary of the method: as §1

[3] = system: windgrass (Apera spica-venti); experiment: Test B postemergence plant response; details: for Windgrass plant response rating (0 to 100 scale): 62 g ai/ha, 0 is no effect, 13 to 15 days
Summary of the method: as §1

[4] = system: chickweed (Stellaria media); experiment: Test B postemergence plant response; details: for Chickweed plant response rating (0 to 100 scale): 62 g ai/ha, 0 is no effect, 13 to 15 days
Summary of the method: as §1

[5] = system: bermudagrass (Cynodon dactylon); experiment: Test B pre-/postemergence plant response; details: for Bermudagrass plant response rating (0 to 100 scale): 0 is no effect, 13 to 15 days
Summary of the method: (§2)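 Greenhouse herbicide screen. Pre- and postemergence (1- to 4-leaf) spray of compound in solvent/surfactant mixture; loam–sand soil for pre, peat/vermiculite medium for post. Visual control rating 0–100 at 13 to 15 days after treatment.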

[6] = system: blackgrass (Alopecurus myosuroides); experiment: Test B pre-/postemergence plant response; details: for Blackgrass plant response rating (0 to 100 scale): 0 is no effect, 13 to 15 days
Summary of the method: as §2

[7] = system: giant foxtail (Setaria faberii); experiment: Test B pre-/postemergence plant response; details: for Foxtail, Giant plant response rating (0 to 100 scale): 0 is no effect, 13 to 15 days
Summary of the method: as §2

[8] = system: morningglory (Ipomoea coccinea); experiment: Test B pre-/postemergence plant response; details: for Morningglory plant response rating (0 to 100 scale): 0 is no effect, 13 to 15 days
Summary of the method: as §2

[9] = system: cocklebur (Xanthium strumarium); experiment: Test B pre-/postemergence plant response; details: for Cocklebur plant response rating (0 to 100 scale): 0 is no effect, 13 to 15 days
Summary of the method: as §2

corn (Zea mays) = experiment: Test B pre-/postemergence plant response; details: for Corn plant response rating (0 to 100 scale): 0 is no effect, 13 to 15 days
Summary of the method: as §2

wild oat (Avena fatua) = experiment: Test B pre-/postemergence plant response; details: for Oat, Wild plant response rating (0 to 100 scale): 0 is no effect, 13 to 15 days
Summary of the method: as §2

soybean (Glycine max) = experiment: Test B pre-/postemergence plant response; details: for Soybean plant response rating (0 to 100 scale): 62 g ai/ha, 0 is no effect, 13 to 15 days
Summary of the method: as §2

kochia (Kochia scoparia) = experiment: Test B pre-/postemergence plant response; details: for Kochia plant response rating (0 to 100 scale): 0 is no effect, 13 to 15 days
Summary of the method: as §2

[10] = system: johnsongrass (Sorghum halepense); experiment: Test B pre-/postemergence plant response; details: for Johnsongrass plant response rating (0 to 100 scale): 0 is no effect, 13 to 15 days
Summary of the method: as §2

[11] = 31 g ai/ha, postemergence, scale 0 to 100, 0 is no effect, 100 is complete control
[12] = postemergence, 100 is complete control
[13] = Postemergence, 125 g ai/ha, visual rating after 13 to 15 days, scale 0 (no effect) to 100 (complete control)
[14] = Postemergence, 250 g ai/ha, scale 0 to 100 (0 no effect, 100 complete control)
[15] = 62 g ai/ha, postemergence, 100 is complete control
[16] = 250 g ai/ha, Preemergence, 0 to 100 scale
[17] = Preemergence, 31 g ai/ha, scale 0 to 100 (0 no effect, 100 complete control)
[18] = Preemergence, 62 g ai/ha, scale 0 to 100 (0 no effect, 100 complete control)
[19] = Preemergence, 125 g ai/ha, scale 0 to 100, 0 no effect, 100 complete control

CCCCc1ncc(C(=O)C2=C(O)CCCC2=O)c(=O)n1-c1ccc(C)cc1 [Compound 67]
Plant response rating, Canarygrass [1, 11]: 0 | Canarygrass plant response rating (0 to 100 scale) [1, 12]: 0 | Plant response rating, Canarygrass [1, 13]: 0 | Plant response rating, Canarygrass [1, 14]: 5 | Plant response rating, Barley [2, 11]: 0 | Barley plant response rating (0 to 100 scale) [2, 12]: 5 | Plant response rating, Barley [2, 13]: 20 | Plant response rating, Barley [2, 14]: 30 | Plant response rating, Windgrass [3, 11]: 0 | Windgrass plant response rating (0 to 100 scale) [3, 12]: 0 | Plant response rating, Windgrass [3, 13]: 5 | Plant response rating, Windgrass [3, 14]: 5 | Plant response rating, Chickweed [4, 11]: 90 | Chickweed plant response rating (0 to 100 scale) [4, 12]: 95 | Plant response rating, Chickweed [4, 13]: 95 | Plant response rating, Chickweed [4, 14]: 100 | Plant response rating, Bermudagrass [5, 11]: 35 | Bermudagrass plant response rating (0 to 100 scale) [5, 15]: 70 | Plant response rating, Bermudagrass [5, 16]: 100 | Plant response rating, Bermudagrass [5, 13]: 70 | Plant response rating, Bermudagrass [5, 14]: 85 | Plant response rating, Bermudagrass [5, 17]: 45 | Plant response rating, Bermudagrass [5, 18]: 90 | Plant response rating, Bermudagrass [5, 19]: 95 | Plant response rating, Blackgrass [6, 11]: 0 | Blackgrass plant response rating (0 to 100 scale) [6, 15]: 0 | Plant response rating, Blackgrass [6, 16]: 5 | Plant response rating, Blackgrass [6, 13]: 5 | Plant response rating, Blackgrass [6, 14]: 10 | Plant response rating, Blackgrass [6, 17]: 0 | Plant response rating, Blackgrass [6, 18]: 0 | Plant response rating, Blackgrass [6, 19]: 0 | Plant response rating, Foxtail, Giant [7, 11]: 75 | Foxtail, Giant plant response rating (0 to 100 scale) [7, 15]: 80 | Plant response rating, Foxtail, Giant [7, 16]: 65 | Plant response rating, Foxtail, Giant [7, 13]: 85 | Plant response rating, Foxtail, Giant [7, 14]: 90 | Plant response rating, Foxtail, Giant [7, 17]: 0 | Plant response rating, Foxtail, Giant [7, 18]: 0 | Plant response rating, Foxtail, Giant [7, 19]: 45 | Plant response rating, Morningglory [8, 11]: 80 | Morningglory plant response rating (0 to 100 scale) [8, 15]: 90 | Plant response rating, Morningglory [8, 13]: 95 | Plant response rating, Morningglory [8, 14]: 100 | Plant response rating, Morningglory [8, 17]: 0 | Plant response rating, Morningglory [8, 18]: 15 | Plant response rating, Morningglory [8, 19]: 15 | Plant response rating, Cocklebur [9, 11]: 75 | Cocklebur plant response rating (0 to 100 scale) [9, 15]: 75 | Plant response rating, Cocklebur [9, 16]: 20 | Plant response rating, Cocklebur [9, 13]: 90 | Plant response rating, Cocklebur [9, 14]: 90 | Plant response rating, Cocklebur [9, 17]: 0 | Plant response rating, Cocklebur [9, 18]: 0 | Plant response rating, Cocklebur [9, 19]: 15 | Plant response rating, Corn (corn (Zea mays); [11]): 5 | Corn plant response rating (0 to 100 scale) (corn (Zea mays); [15]): 10 | Plant response rating, Corn (corn (Zea mays); [16]): 0 | Plant response rating, Corn (corn (Zea mays); [13]): 65 | Plant response rating, Corn (corn (Zea mays); [14]): 75 | Plant response rating, Corn (corn (Zea mays); [17]): 0 | Plant response rating, Corn (corn (Zea mays); [18]): 0 | Plant response rating, Corn (corn (Zea mays); [19]): 0 | Plant response rating, Oat, Wild (wild oat (Avena fatua); [11]): 0 | Oat, Wild plant response rating (0 to 100 scale) (wild oat (Avena fatua); [15]): 5 | Plant response rating, Oat, Wild (wild oat (Avena fatua); [13]): 10 | Plant response rating, Oat, Wild (wild oat (Avena fatua); [14]): 10 | Plant response rating, Oat, Wild (wild oat (Avena fatua); [17]): 0 | Plant response rating, Oat, Wild (wild oat (Avena fatua); [18]): 0 | Plant response rating, Oat, Wild (wild oat (Avena fatua); [19]): 0 | Plant response rating, Soybean (soybean (Glycine max); [11]): 80 | Soybean plant response rating (0 to 100 scale) (soybean (Glycine max); [12]): 90 | Plant response rating, Soybean (soybean (Glycine max); [13]): 98 | Plant response rating, Soybean (soybean (Glycine max); [14]): 98 | Plant response rating, Kochia (kochia (Kochia scoparia); [11]): 75 | Kochia plant response rating (0 to 100 scale) (kochia (Kochia scoparia); [15]): 80 | Plant response rating, Kochia (kochia (Kochia scoparia); [16]): 85 | Plant response rating, Kochia (kochia (Kochia scoparia); [13]): 85 | Plant response rating, Kochia (kochia (Kochia scoparia); [14]): 85 | Plant response rating, Kochia (kochia (Kochia scoparia); [17]): 70 | Plant response rating, Kochia (kochia (Kochia scoparia); [18]): 70 | Plant response rating, Kochia (kochia (Kochia scoparia); [19]): 80 | Plant response rating, Johnsongrass [10, 11]: 0 | Johnsongrass plant response rating (0 to 100 scale) [10, 15]: 0 | Plant response rating, Johnsongrass [10, 16]: 0 | Plant response rating, Johnsongrass [10, 13]: 5 | Plant response rating, Johnsongrass [10, 14]: 10 | Plant response rating, Johnsongrass [10, 17]: 0 | Plant response rating, Johnsongrass [10, 18]: 0 | Plant response rating, Johnsongrass [10, 19]: 0

O=C1CCCC(O)=C1C(=O)c1cnc(-c2ccccc2Br)n(-c2ccccc2)c1=O [Compound 71]
Plant response rating, Canarygrass [1, 11]: 0 | Canarygrass plant response rating (0 to 100 scale) [1, 12]: 5 | Plant response rating, Canarygrass [1, 13]: 5 | Plant response rating, Canarygrass [1, 14]: 20 | Plant response rating, Barley [2, 11]: 0 | Barley plant response rating (0 to 100 scale) [2, 12]: 0 | Plant response rating, Barley [2, 13]: 0 | Plant response rating, Barley [2, 14]: 5 | Plant response rating, Windgrass [3, 11]: 5 | Windgrass plant response rating (0 to 100 scale) [3, 12]: 10 | Plant response rating, Windgrass [3, 13]: 45 | Plant response rating, Windgrass [3, 14]: 60 | Plant response rating, Chickweed [4, 11]: 75 | Chickweed plant response rating (0 to 100 scale) [4, 12]: 90 | Plant response rating, Chickweed [4, 13]: 95 | Plant response rating, Chickweed [4, 14]: 98 | Plant response rating, Bermudagrass [5, 11]: 65 | Bermudagrass plant response rating (0 to 100 scale) [5, 15]: 75 | Plant response rating, Bermudagrass [5, 13]: 80 | Plant response rating, Bermudagrass [5, 14]: 98 | Plant response rating, Blackgrass [6, 11]: 0 | Blackgrass plant response rating (0 to 100 scale) [6, 15]: 0 | Plant response rating, Blackgrass [6, 13]: 0 | Plant response rating, Blackgrass [6, 14]: 5 | Plant response rating, Foxtail, Giant [7, 11]: 20 | Foxtail, Giant plant response rating (0 to 100 scale) [7, 15]: 75 | Plant response rating, Foxtail, Giant [7, 13]: 80 | Plant response rating, Foxtail, Giant [7, 14]: 95 | Plant response rating, Morningglory [8, 11]: 65 | Morningglory plant response rating (0 to 100 scale) [8, 15]: 65 | Plant response rating, Morningglory [8, 13]: 75 | Plant response rating, Morningglory [8, 14]: 80 | Plant response rating, Cocklebur [9, 11]: 65 | Cocklebur plant response rating (0 to 100 scale) [9, 15]: 65 | Plant response rating, Cocklebur [9, 13]: 95 | Plant response rating, Cocklebur [9, 14]: 95 | Plant response rating, Corn (corn (Zea mays); [11]): 0 | Corn plant response rating (0 to 100 scale) (corn (Zea mays); [15]): 0 | Plant response rating, Corn (corn (Zea mays); [13]): 0 | Plant response rating, Corn (corn (Zea mays); [14]): 15 | Plant response rating, Oat, Wild (wild oat (Avena fatua); [11]): 0 | Oat, Wild plant response rating (0 to 100 scale) (wild oat (Avena fatua); [15]): 0 | Plant response rating, Oat, Wild (wild oat (Avena fatua); [13]): 0 | Plant response rating, Oat, Wild (wild oat (Avena fatua); [14]): 5 | Plant response rating, Soybean (soybean (Glycine max); [11]): 65 | Soybean plant response rating (0 to 100 scale) (soybean (Glycine max); [12]): 70 | Plant response rating, Soybean (soybean (Glycine max); [13]): 95 | Plant response rating, Soybean (soybean (Glycine max); [14]): 98 | Plant response rating, Kochia (kochia (Kochia scoparia); [11]): 0 | Kochia plant response rating (0 to 100 scale) (kochia (Kochia scoparia); [15]): 0 | Plant response rating, Kochia (kochia (Kochia scoparia); [13]): 25 | Plant response rating, Kochia (kochia (Kochia scoparia); [14]): 65 | Plant response rating, Johnsongrass [10, 11]: 65 | Johnsongrass plant response rating (0 to 100 scale) [10, 15]: 75 | Plant response rating, Johnsongrass [10, 13]: 98 | Plant response rating, Johnsongrass [10, 14]: 100
